In patent US12629408B2, “Peptides with anti-tumor activity” (UNIVERSITA' DEGLI STUDI DI PADOVA, priority 2019, dated 2026):
Where two headings read alike, the source gives them in different places. Square brackets hold non-standard residues; d marks the D form. Ends that are not written are not given here. Ahx = NCCCCCC(=O)O; βAla = NCCC(=O)O

Assays:
non-tumor tissues [1] = experiment: Autopsy and histological evaluation of internal organs of treated mice
Excerpt: (§2) At the end of each experiment shown in FIGS. 2, 3 and 4, and described in Example 2, male and female Balb/c mice underwent a complete autopsy with the assistance of an anatomopathologist expert. […] The group of mice not receiving any peptide treatment (NaCl) acts as an additional control.
(§3) List of organs or tissues analyzed: heart, skeletal muscle, kidney, spleen, lung, liver, brain, intestine, pancreas, bone marrow, lymph nodes, thyroid gland, parathyroid glands, and adrenal glands.

[2] = system: murine colon carcinoma line CT26; experiment: In vivo colon cancer, CT26 subcutaneous tumor, injection into the tumors (FIG. 1); design: species or system Balb/c mice
Method: (§1) 100,000 tumor cells from the murine colon carcinoma line CT26 were injected subcutaneously (in the right flank) to male Balb/c mice. The transplanted cells give rise to a subcutaneous tumor clearly visible from the outside in just over a week. Using this in vivo tumorigenesis procedure, we conducted three different experiments (described below) whose results are represented in FIGS. 1, 2 and 3.
At 8 days post-cell inoculation, the mice were divided into three groups (FIG. 1) and saline boluses (NaCl) without any other solute, or containing the active form of ACPP-HK2 resulting from the proteolytic cut (pepHK2, 2 nmol/injection), or finally containing the entire ACPP-HK2 (2 nmol/injection) were injected into the tumors. Each bolus consisted of 20 μl solution and was injected every 12 hours up to 60 hours. 72 hours after the start of the treatment, the mice were sacrificed, and the tumor volume was measured.

[3] = system: murine colon carcinoma line CT26; experiment: In vivo colon cancer, CT26 subcutaneous tumor, intraperitoneal injections (FIGS. 2, 3); design: species or system Balb/c mice
Method: as §1
Administration was performed every 12 hours by means of intraperitoneal injections of 500 μl each containing 30 nmoles of peptide (ACPP-HK2 or ACPP-SCR). […] Every 48 hours the size of the tumors was measured externally, and their volumes calculated.
In this experiment, a double dose of peptides (60 nmoles/injection) was administered compared to the second experiment, again by intraperitoneal injection.

[4] = system: murine breast cancer cell line 4T1; experiment: In vivo breast cancer, 4T1 subcutaneous tumor, intraperitoneal injections (FIG. 4); design: species or system mice; settings: 4T1, intraperitoneal, 60 nmoles every 12 hours up to 60 hours
Method: In this experiment (FIG. 4), 200,000 murine breast cancer cell line 4T1 were injected subcutaneously into female mice. At 9 days post-inoculation of the cells, the mice were divided into two experimental groups and 60 nmoles of peptides (ACPP-HK2 or ACPP-SCR) dissolved in 500 μl of saline solution were injected intraperitoneally. The injections followed one the other every 12 hours up to 60 hours and at 72 hours the experiment ended.

[5] = system: HeLa cervical cancer cell line; experiment: Cell viability after treatment with ACPP-HK2 sequence variants; type: cell-based, human; settings: between 5 and 50 μM, 18 or 36 hours
Excerpt: FIGS. 9A and 9B report cell viability after treatment of tumor cells (HeLa cervical cancer cell line) at various concentrations and times with the peptides ACPP-HK2 (SEQ ID NO:1), ACPP-HK2 II (SEQ ID) NO: 8), ACPP-HK2 III (SEQ ID NO: 9) and ACPP-HK2 IV (SEQ ID NO:10).

non-tumor tissues [6] = settings: mouse, in vivo
Excerpt: as §2, §3

VGAHAGEYGAEALER βA RRRRRRRRR PLGLAG Ahx EEEEEEEE (VGAHAGEYGAEALER[βAla]RRRRRRRRRPLGLAG[Ahx]EEEEEEEE) [ACPP-SCR, reference compound]
histological characteristics of formalin-fixed sections of internal organs (non-tumor tissues [1]; mice of the experiments of FIGS. 2, 3 and 4, heart, skeletal muscle, kidney, spleen, lung, liver, brain and others): without finding any differences among different experimental groups (ACPP-SCR and ACPP-HK2) or any tissue alterations

MIASHLLAYFFTELN βA RRRRRRRRR PLGLAG Ahx EEEEEEEE (MIASHLLAYFFTELN[βAla]RRRRRRRRRPLGLAG[Ahx]EEEEEEEE) [ACPP-HK2]
tumor growth (tumor volume) ([2]; 2 nmol/injection into the tumors every 12 hours up to 60 hours, measured at 72 hours, vs saline): reduce tumor growth
efficacy on tumor growth, ACPP-HK2 compared with pepHK2 ([2]; 2 nmol/injection into the tumors, 72 hours): more effective
tumor volume vs ACPP-SCR control ([3]; 30 nmoles every 12 hours, after 48 and 96 hours): significantly smaller in volume than the control tumors injected with ACPP-SCR
tumor growth ([3]; 60 nmoles/injection every twelve hours up to the sixtieth hour): strongly reduces, up to almost blocking, tumor growth
tumor growth [4]: almost blocked
tumor volume vs ACPP-SCR control ([4]; end at 72 hours): significantly smaller in volume than control tumors injected with ACPP-SCR
cell viability [5]: able to decrease cell viability of cancer cells
histological characteristics of formalin-fixed sections of internal organs (non-tumor tissues [6]): without finding any differences among different experimental groups (ACPP-SCR and ACPP-HK2) or any tissue alterations
toxic side effect for non-tumor tissues and the whole organism (non-tumor tissues [1]; expert's conclusion after autopsy and histology): no toxic side effect

SHLLAYFFTELN-RRRRRRRRR-PLGLAG-Ahx-EEEEEEEE (SHLLAYFFTELNRRRRRRRRRPLGLAG[Ahx]EEEEEEEE) [ACPP-HK2 II, variant ACPP-HK2 II of the peptide ACPP-HK2, 36-amino acid peptide]
cell viability [5]: able to decrease cell viability of cancer cells

SHLLAYFFTELNHD-RRRRRRRRR-PLGLAG-Ahx-EEEEEEEE (SHLLAYFFTELNHDRRRRRRRRRPLGLAG[Ahx]EEEEEEEE) [ACPP-HK2 IV, variant ACPP-HK2 IV of the peptide ACPP-HK2, 38-amino acid peptide]
cell viability [5]: able to decrease cell viability of cancer cells

SHLLAYFFTELN-GRKKRRQRRRG-PLGLAG-Ahx-EEEEEEEE (SHLLAYFFTELNGRKKRRQRRRGPLGLAG[Ahx]EEEEEEEE) [ACPP-HK2 III, variant ACPP-HK2 III of the peptide ACPP-HK2, 38-amino acid peptide]
cell viability [5]: able to decrease cell viability of cancer cells
